Reference: paper PMC11111408, “Concurrent inhibition of oncogenic and wild-type RAS-GTP for cancer therapy” (Nature, 2024)

Tested on: PRISM DNA-barcoded human tumour cell lines
Assay: PRISM pooled cell viability assay;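 as to PRISM AUC: 8 threefold dilutions from 10 µM with 5 days of exposure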
Format: cell-based
Design: AUC (PRISM viability) / AUC (PRISM): unit not given beside the values
Settings: for AUC (PRISM viability): WT; for PRISM AUC: KRAS MUT
Description: Cells were then lysed in TCL mRNA lysis buffer, and then PCR with reverse transcription was performed. Detection of the barcodes and univariate and multivariate analysis was then performed as previously described. Data analysis is described in the Supplementary Methods. Up-to-date code for our analysis is at the github link: https://github.com/cmap/dockerized_mts.
For every gene with non-silent mutations in at least four cell-lines, we compared the AUC values between cells with and without those mutations using a t-test. This analysis was carried out for: (i) the full dataset; (ii) excluding cell lines with non-silent KRAS mutations; and (iii) excluding cell lines that have either KRAS or NRAS non-silent mutations.

In the case of `CCn1c(-c2cc(N3CCN(C4CC4)CC3)cnc2[C@H](C)OC)c2c3cc(ccc31)-c1csc(n1)C[C@H](NC(=O)[C@H]1[C@@H]3COC[C@@H]31)C(=O)N1CCC[C@H](N1)C(=O)OCC(C)(C)C2` [RMC-7977], the “AUC (PRISM viability)” value (MPP89_PLEURA) is reported as 0.9969, the “AUC (PRISM viability)” value (MSTO211H_PLEURA) is reported as 0.3796 and the “AUC (PRISM viability)” value (NALM6_HAEMATOPOIETIC_AND_LYMPHOID_TISSUE) is reported as 0.7052. The “AUC (PRISM viability)” value (NB1_AUTONOMIC_GANGLIA) was 0.4921, the “PRISM AUC” value (NCIH23_LUNG) was 0.451 and the “AUC (PRISM viability)” value (NCIH28_PLEURA) was 0.6741. For the same molecule, the “AUC (PRISM viability)” value (NCIH82_LUNG) was 0.581, the “AUC (PRISM viability)” value (NCIH196_LUNG) was 0.9033 and the “AUC (PRISM viability)” value (NCIH226_LUNG) was 0.6197. The “AUC (PRISM viability)” value (NCIH292_LUNG) was 0.4596, the “AUC (PRISM viability)” value (NCIH322_LUNG) was 0.4865 and the “PRISM AUC” value (NCIH358_LUNG) was 0.1803. The “PRISM AUC” value (NCIH441_LUNG) was 0.3007, the “AUC (PRISM viability)” value (NCIH446_LUNG) was 0.8555 and the “AUC (PRISM viability)” value (NCIH508_LARGE_INTESTINE) was 0.3599. For the same molecule, the “AUC (PRISM viability)” value (NCIH520_LUNG) was 0.7662, the “AUC (PRISM viability)” value (NCIH522_LUNG) was 0.759 and the “AUC (PRISM viability)” value (NCIH524_LUNG) was 0.7662. The “AUC (PRISM viability)” value (NCIH596_LUNG) was 0.5305, the “PRISM AUC” value (NCIH647_LUNG) was 0.7239 and the “AUC (PRISM viability)” value (NCIH661_LUNG) was 0.7122. The “PRISM AUC” value (NCIH727_LUNG) was 0.5024, the “PRISM AUC” value (NCIH747_LARGE_INTESTINE) was 0.2108 and the “AUC (PRISM viability)” value (NCIH838_LUNG) was 0.8166. For the same molecule, the “AUC (PRISM viability)” value (NCIH841_LUNG) was 0.7846, the “AUC (PRISM viability)” value (NCIH1048_LUNG) was 0.6373 and the “AUC (PRISM viability)” value (NCIH1092_LUNG) was 0.3222. The “AUC (PRISM viability)” value (NCIH1299_LUNG) was 0.4354, the “PRISM AUC” value (NCIH1339_LUNG) was 0.4553 and the “AUC (PRISM viability)” value (NCIH1341_LUNG) was 0.5477. For the same molecule, the “PRISM AUC” value (NCIH1355_LUNG) was 0.4521, the “PRISM AUC” value (NCIH1373_LUNG) was 0.3791 and the “AUC (PRISM viability)” value (NCIH1435_LUNG) was 0.8637. For the same molecule, the “AUC (PRISM viability)” value (NCIH1437_LUNG) was 0.5969, the “AUC (PRISM viability)” value (NCIH1563_LUNG) was 0.6189 and the “AUC (PRISM viability)” value (NCIH1568_LUNG) was 0.6734. The “AUC (PRISM viability)” value (NCIH1581_LUNG) was 0.9998, the “AUC (PRISM viability)” value (NCIH1648_LUNG) was 0.2199 and the “AUC (PRISM viability)” value (NCIH1650_LUNG) was 0.6245. For the same molecule, the “AUC (PRISM viability)” value (NCIH1651_LUNG) was 0.8871, the “AUC (PRISM viability)” value (NCIH1693_LUNG) was 0.8183 and the “AUC (PRISM viability)” value (NCIH1694_LUNG) was 0.5791. The “AUC (PRISM viability)” value (NCIH1703_LUNG) was 0.6825, the “PRISM AUC” value (NCIH1792_LUNG) was 0.2139 and the “AUC (PRISM viability)” value (NCIH1793_LUNG) was 0.6312. The “AUC (PRISM viability)” value (NCIH1838_LUNG) was 0.5855, the “AUC (PRISM viability)” value (NCIH1915_LUNG) was 0.641 and the “PRISM AUC” value (NCIH1944_LUNG) was 0.5331. For the same molecule, the “AUC (PRISM viability)” value (NCIH1975_LUNG) was 0.5382, the “AUC (PRISM viability)” value (NCIH2023_LUNG) was 0.5354 and the “AUC (PRISM viability)” value (NCIH2087_LUNG) was 0.3287. For the same molecule, the “AUC (PRISM viability)” value (NCIH2110_LUNG) was 0.5875, the “PRISM AUC” value (NCIH2122_LUNG) was 0.1883 and the “AUC (PRISM viability)” value (NCIH2126_LUNG) was 0.6292. For the same molecule, the “AUC (PRISM viability)” value (NCIH2170_LUNG) was 0.6244, the “AUC (PRISM viability)” value (NCIH2171_LUNG) was 0.8542 and the “AUC (PRISM viability)” value (NCIH2172_LUNG) was 0.765. For the same molecule, the “AUC (PRISM viability)” value (NCIH2228_LUNG) was 0.4232, the “PRISM AUC” value (NCIH2444_LUNG) was 0.2818 and the “AUC (PRISM viability)” value (NCIH2452_PLEURA) was 1. The “AUC (PRISM viability)” value (NCIN87_STOMACH) was 0.7465, the “AUC (PRISM viability)” value (NCO2_HAEMATOPOIETIC_AND_LYMPHOID_TISSUE) was 0.625 and the “AUC (PRISM viability)” value (NIHOVCAR3_OVARY) was 0.7506. The “PRISM AUC” value (NOMO1_HAEMATOPOIETIC_AND_LYMPHOID_TISSUE) was 0.4639, the “AUC (PRISM viability)” value (NUGC3_STOMACH) was 0.3156 and the “AUC (PRISM viability)” value (NUGC4_STOMACH) was 0.304. The “AUC (PRISM viability)” value (OAW42_OVARY) was 0.7122, the “AUC (PRISM viability)” value (OC314_OVARY) was 0.7084 and the “AUC (PRISM viability)” value (OC316_OVARY) was 0.6527. The “AUC (PRISM viability)” value (OCIAML2_HAEMATOPOIETIC_AND_LYMPHOID_TISSUE) was 0.8145, the “AUC (PRISM viability)” value (OCIAML3_HAEMATOPOIETIC_AND_LYMPHOID_TISSUE) was 0.162 and the “AUC (PRISM viability)” value (OCILY3_HAEMATOPOIETIC_AND_LYMPHOID_TISSUE) was 0.7702. The “AUC (PRISM viability)” value (OCIM1_HAEMATOPOIETIC_AND_LYMPHOID_TISSUE) was 0.5554, the “AUC (PRISM viability)” value (OE19_OESOPHAGUS) was 0.4503 and the “AUC (PRISM viability)” value (OE21_OESOPHAGUS) was 0.4077. For the same molecule, the “AUC (PRISM viability)” value (OE33_OESOPHAGUS) was 0.4516, the “AUC (PRISM viability)” value (ONCODG1_OVARY) was 0.8342 and the “AUC (PRISM viability)” value (ONS76_CENTRAL_NERVOUS_SYSTEM) was 0.1792. The “AUC (PRISM viability)” value (OSRC2_KIDNEY) was 0.7371, the “AUC (PRISM viability)” value (OUMS23_LARGE_INTESTINE) was 0.9107 and the “PRISM AUC” value (OV7_OVARY) was 0.3327. The “PRISM AUC” value (OV56_OVARY) was 0.6812, the “AUC (PRISM viability)” value (OVISE_OVARY) was 0.7216 and the “AUC (PRISM viability)” value (OVKATE_OVARY) was 0.7188. For the same molecule, the “AUC (PRISM viability)” value (OVTOKO_OVARY) was 0.7297, the “AUC (PRISM viability)” value (P12ICHIKAWA_HAEMATOPOIETIC_AND_LYMPHOID_TISSUE) was 0.1917 and the “PRISM AUC” value (PANC1_PANCREAS) was 0.7301. The “PRISM AUC” value (PANC0203_PANCREAS) was 0.1549, the “PRISM AUC” value (PANC0327_PANCREAS) was 0.3885 and the “PRISM AUC” value (PANC0403_PANCREAS) was 0.1969. For the same molecule, the “PRISM AUC” value (PANC0504_PANCREAS) was 0.2677, the “PRISM AUC” value (PANC0813_PANCREAS) was 0.6012 and the “PRISM AUC” value (PANC1005_PANCREAS) was 0.492. The “PRISM AUC” value (PATU8902_PANCREAS) was 0.2883, the “PRISM AUC” value (PATU8988S_PANCREAS) was 0.2608 and the “PRISM AUC” value (PATU8988T_PANCREAS) was 0.5033. For the same molecule, the “AUC (PRISM viability)” value (PC3_PROSTATE) was 0.7599, the “AUC (PRISM viability)” value (PC14_LUNG) was 0.4618 and the “AUC (PRISM viability)” value (PECAPJ15_UPPER_AERODIGESTIVE_TRACT) was 0.4843. The “AUC (PRISM viability)” value (PECAPJ41CLONED2_UPPER_AERODIGESTIVE_TRACT) was 0.3318, the “AUC (PRISM viability)” value (PECAPJ49_UPPER_AERODIGESTIVE_TRACT) was 0.2883 and the “AUC (PRISM viability)” value (PF382_HAEMATOPOIETIC_AND_LYMPHOID_TISSUE) was 0.3397. The “PRISM AUC” value (PK1_PANCREAS) was 0.3834, the “PRISM AUC” value (PK45H_PANCREAS) was 0.5023 and the “PRISM AUC” value (PK59_PANCREAS) was 0.2749. The “AUC (PRISM viability)” value (PLCPRF5_LIVER) was 0.7216, the “PRISM AUC” value (PSN1_PANCREAS) was 0.12 and the “PRISM AUC” value (QGP1_PANCREAS) was 0.3907. The “AUC (PRISM viability)” value (RCC10RGB_KIDNEY) was 0.7484, the “PRISM AUC” value (RCM1_LARGE_INTESTINE) was 0.1259 and the “AUC (PRISM viability)” value (RDES_BONE) was 0.7616. The “AUC (PRISM viability)” value (RD_SOFT_TISSUE) was 0.207, the “AUC (PRISM viability)” value (RERFGC1B_STOMACH) was 0.5427 and the “PRISM AUC” value (RERFLCAD2_LUNG) was 0.4067. For the same molecule, the “AUC (PRISM viability)” value (RERFLCAI_LUNG) was 0.6094, the “AUC (PRISM viability)” value (RERFLCKJ_LUNG) was 0.8949 and the “AUC (PRISM viability)” value (RERFLCMS_LUNG) was 0.7953. For the same molecule, the “AUC (PRISM viability)” value (RH30_SOFT_TISSUE) was 0.6971, the “AUC (PRISM viability)” value (RI1_HAEMATOPOIETIC_AND_LYMPHOID_TISSUE) was 0.7681 and the “PRISM AUC” value (RKN_SOFT_TISSUE) was 0.1266. The “AUC (PRISM viability)” value (RKO_LARGE_INTESTINE) was 0.9515, the “AUC (PRISM viability)” value (RL952_ENDOMETRIUM) was 0.342 and the “AUC (PRISM viability)” value (RL_HAEMATOPOIETIC_AND_LYMPHOID_TISSUE) was 0.7851. The “AUC (PRISM viability)” value (RMGI_OVARY) was 0.5297, the “AUC (PRISM viability)” value (RMUGS_OVARY) was 0.8312 and the “AUC (PRISM viability)” value (RPMI7951_SKIN) was 0.9756. The “AUC (PRISM viability)” value (RPMI8402_HAEMATOPOIETIC_AND_LYMPHOID_TISSUE) was 0.7828, the “AUC (PRISM viability)” value (RT4_URINARY_TRACT) was 0.5133 and the “AUC (PRISM viability)” value (RT112_URINARY_TRACT) was 0.1516. The “AUC (PRISM viability)” value (RVH421_SKIN) was 0.8566, the “AUC (PRISM viability)” value (SBC5_LUNG) was 0.6474 and the “AUC (PRISM viability)” value (SCABER_URINARY_TRACT) was 0.3752. The “AUC (PRISM viability)” value (SCC9_UPPER_AERODIGESTIVE_TRACT) was 0.5257.
